# Experiments:
# E0771ERVIII cells = experiment: In vitro proliferation of E0771ERVIII cells (veliparib, JQ1); format: cell-based, mouse
# Text: (§1) Another small molecule drug JQ1 is a BET bromodomain inhibitor acting on BRD4, it may induce tumor cell apoptosis (i.e., slow proliferation) by targeted inhibition of BRD4, thereby achieving anti-tumor effects.
# mouse CAR-T cells = experiment: In vitro proliferation of mouse CAR-T cells (veliparib, JQ1); format: cell-based
# Text: as §1
# mouse T cells = experiment: In vitro proliferation of mouse T cells (JQ1); format: cell-based; conditions: JQ1, dose-dependent manner
# Text: as §1
# CART cells = experiment: LDH cell killing experiment with veliparib; format: cell-based; conditions: 100 μM
# Text: as §1
SMILES,proliferation of E0771ERVIII cells (E0771ERVIII cells; different concentrations of JQ1 for 48 h),"proliferation of CAR-T cells (mouse CAR-T cells; JQ1, dose-dependent manner)",proliferation of mouse T cells (mouse T cells),concentration level that may affect the proliferation level of E0771ERVIII cells (E0771ERVIII cells; in vitro),concentration that may significantly inhibit the proliferation of E0771ERVIII cells (E0771ERVIII cells; in vitro),proliferation of mouse CAR-T cells (mouse CAR-T cells; veliparib at 20 μM or more),killing effect of CART cells (CART cells)
Cc1sc2c(c1C)C(c1ccc(Cl)cc1)=N[C@@H](CC(=O)OC(C)(C)C)c1nnc(C)n1-2 [JQ1],could not inhibit,significantly inhibit,significantly inhibit,,,,
C[C@]1(c2nc3c(C(N)=O)cccc3[nH]2)CCCN1 [veliparib],,,,≥ 10 µM,≥ 20 µM,significantly inhibit,could not improve

# Source: patent publication US20230158071A1, “TUMOR COMBINED IMMUNOTHERAPY” (CRAGE medical Co., Limited, priority 2018, published 2023)
